From PubChem BioAssay AID1963421 (Molecular Pharmacology Branch, DTP, NCI, 2024)

System: 519858-162-T-J1-PDC complex spheroid growth, % test/control
Assay: Anticancer human tumor 519858-162-T-J1-PDC patient-derived colon adenocarcinoma cell line growth inhibition [Asc]
Settings: for IC50: curve of first compound; for viability, T/C: stronger effect = lower value
Procedure, shortened: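 Tumor cells were grown as multicellular spheroids with stromal HUVEC and mesenchymal stem cells and treated singly or in combination. Concentrations fell in half-log steps from the clinical Cmax, or from 10 microM where none was known.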
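Also: seven day drug exposure begun three days after spheroid seeding.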
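For viability, T/C in this document: 100% = DMSO vehicle wells and lower values mean less viable spheroid.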

C#Cc1c(F)ccc2cc(O)cc(-c3ncc4c(N5CC6CCC(C5)N6)nc(OCC56CCCN5CC(F)C6)nc4c3F)c12 (stereo unspecified) + CCN1C(C(=O)NC23CCC(C(=O)O)(CC2)CC3)C(c2cccc(Cl)c2F)C2(C(=O)Nc3cc(Cl)ccc32)C12CCCCC2
IC50 (second compound 0.00949 µM): > 10 µM | IC50 (second compound 0.03 µM): > 10 µM | IC50 (second compound 0.0949 µM): > 10 µM | IC50 (second compound 0.3 µM): > 10 µM | IC50 (second compound 0.949 µM): > 10 µM | IC50 (second compound 3 µM): > 10 µM | viability, T/C (second compound 0.00949 µM, first compound 0.0316 µM): 75.2% | viability, T/C (second compound 0.00949 µM, first compound 0.1 µM): 104% | viability, T/C (second compound 0.00949 µM, first compound 0.316 µM): 84.3% | viability, T/C (second compound 0.00949 µM, first compound 1 µM): 66.3% | viability, T/C (second compound 0.00949 µM, first compound 3.16 µM): 82.3% | viability, T/C (second compound 0.00949 µM, first compound 10 µM): 64% | viability, T/C (second compound 0.03 µM, first compound 0.0316 µM): 67.5% | viability, T/C (second compound 0.03 µM, first compound 0.1 µM): 84.6% | viability, T/C (second compound 0.03 µM, first compound 0.316 µM): 96.4% | viability, T/C (second compound 0.03 µM, first compound 1 µM): 92.4% | viability, T/C (second compound 0.03 µM, first compound 3.16 µM): 94.3% | viability, T/C (second compound 0.03 µM, first compound 10 µM): 88.4% | viability, T/C (second compound 0.0949 µM, first compound 0.0316 µM): 89.6% | viability, T/C (second compound 0.0949 µM, first compound 0.1 µM): 99.2% | viability, T/C (second compound 0.0949 µM, first compound 0.316 µM): 88.4% | viability, T/C (second compound 0.0949 µM, first compound 1 µM): 64.1% | viability, T/C (second compound 0.0949 µM, first compound 3.16 µM): 81.4% | viability, T/C (second compound 0.0949 µM, first compound 10 µM): 69% | viability, T/C (second compound 0.3 µM, first compound 0.0316 µM): 59.4% | viability, T/C (second compound 0.3 µM, first compound 0.1 µM): 95.5% | viability, T/C (second compound 0.3 µM, first compound 0.316 µM): 78.4% | viability, T/C (second compound 0.3 µM, first compound 1 µM): 71.2% | viability, T/C (second compound 0.3 µM, first compound 3.16 µM): 74.2% | viability, T/C (second compound 0.3 µM, first compound 10 µM): 102% | viability, T/C (second compound 0.949 µM, first compound 0.0316 µM): 53.3% | viability, T/C (second compound 0.949 µM, first compound 0.1 µM): 116% | viability, T/C (second compound 0.949 µM, first compound 0.316 µM): 81.3% | viability, T/C (second compound 0.949 µM, first compound 1 µM): 58.5% | viability, T/C (second compound 0.949 µM, first compound 3.16 µM): 86.6% | viability, T/C (second compound 0.949 µM, first compound 10 µM): 93.6% | viability, T/C (second compound 3 µM, first compound 0.0316 µM): 64.2% | viability, T/C (second compound 3 µM, first compound 0.1 µM): 60.6% | viability, T/C (second compound 3 µM, first compound 0.316 µM): 63.3% | viability, T/C (second compound 3 µM, first compound 1 µM): 77.7% | viability, T/C (second compound 3 µM, first compound 3.16 µM): 93% | viability, T/C (second compound 3 µM, first compound 10 µM): 66.7%

C=C(F)C(=O)N1CCN(c2nc(OCC3CCCN3C)nc3c2CCN(c2cccc4cccc(Cl)c24)C3)CC1CC#N (stereo unspecified) + Cc1c(S(C)(=O)=O)c(-c2cc(F)cc(N3CCN(c4ccc(NS(=O)(=O)c5ccc(NC(CCN6CCC(C(=O)OCCCP(=O)(O)O)CC6)CSc6ccccc6)c(S(=O)(=O)C(F)(F)F)c5)cc4)CC3)c2)c(-c2ccc(Cl)cc2)n1C(C)C
IC50 (second compound 0.0316 µM): < 0.0316 µM | IC50 (second compound 0.1 µM): 9.04 µM | IC50 (second compound 0.316 µM): 6.37 µM | IC50 (second compound 1 µM): 5.09 µM | IC50 (second compound 3.16 µM): 2.51 µM | IC50 (second compound 10 µM): 2.69 µM | viability, T/C (second compound 0.0316 µM, first compound 0.0316 µM): 43.8% | viability, T/C (second compound 0.0316 µM, first compound 0.1 µM): 78.2% | viability, T/C (second compound 0.0316 µM, first compound 0.316 µM): 94.3% | viability, T/C (second compound 0.0316 µM, first compound 1 µM): 98.9% | viability, T/C (second compound 0.0316 µM, first compound 3.16 µM): 82.6% | viability, T/C (second compound 0.0316 µM, first compound 10 µM): 64.9% | viability, T/C (second compound 0.1 µM, first compound 0.0316 µM): 115% | viability, T/C (second compound 0.1 µM, first compound 0.1 µM): 111% | viability, T/C (second compound 0.1 µM, first compound 0.316 µM): 103% | viability, T/C (second compound 0.1 µM, first compound 1 µM): 89% | viability, T/C (second compound 0.1 µM, first compound 3.16 µM): 84.8% | viability, T/C (second compound 0.1 µM, first compound 10 µM): 45.3% | viability, T/C (second compound 0.316 µM, first compound 0.0316 µM): 95.9% | viability, T/C (second compound 0.316 µM, first compound 0.1 µM): 102% | viability, T/C (second compound 0.316 µM, first compound 0.316 µM): 88% | viability, T/C (second compound 0.316 µM, first compound 1 µM): 70.2% | viability, T/C (second compound 0.316 µM, first compound 3.16 µM): 61.9% | viability, T/C (second compound 0.316 µM, first compound 10 µM): 43.5% | viability, T/C (second compound 1 µM, first compound 0.0316 µM): 102% | viability, T/C (second compound 1 µM, first compound 0.1 µM): 84.7% | viability, T/C (second compound 1 µM, first compound 0.316 µM): 116% | viability, T/C (second compound 1 µM, first compound 1 µM): 86.5% | viability, T/C (second compound 1 µM, first compound 3.16 µM): 62.8% | viability, T/C (second compound 1 µM, first compound 10 µM): 33.2% | viability, T/C (second compound 3.16 µM, first compound 0.0316 µM): 86.9% | viability, T/C (second compound 3.16 µM, first compound 0.1 µM): 74.1% | viability, T/C (second compound 3.16 µM, first compound 0.316 µM): 81.8% | viability, T/C (second compound 3.16 µM, first compound 1 µM): 61.1% | viability, T/C (second compound 3.16 µM, first compound 3.16 µM): 47.9% | viability, T/C (second compound 3.16 µM, first compound 10 µM): 13.5% | viability, T/C (second compound 10 µM, first compound 0.0316 µM): 86.7% | viability, T/C (second compound 10 µM, first compound 0.1 µM): 66.5% | viability, T/C (second compound 10 µM, first compound 0.316 µM): 72.4% | viability, T/C (second compound 10 µM, first compound 1 µM): 62.3% | viability, T/C (second compound 10 µM, first compound 3.16 µM): 51.4% | viability, T/C (second compound 10 µM, first compound 10 µM): 3.12%

NC(=O)C(=Cn1cnc(-c2cc(C(F)(F)F)cc(C(F)(F)F)c2)n1)c1cncnc1 + CCN1C(C(=O)NC23CCC(C(=O)O)(CC2)CC3)C(c2cccc(Cl)c2F)C2(C(=O)Nc3cc(Cl)ccc32)C12CCCCC2
IC50 (second compound 0.00949 µM): > 0.3 µM | IC50 (second compound 0.03 µM): > 0.3 µM | IC50 (second compound 0.0949 µM): > 0.3 µM | IC50 (second compound 0.3 µM): > 0.3 µM | IC50 (second compound 0.949 µM): > 0.3 µM | IC50 (second compound 3 µM): > 0.3 µM | viability, T/C (second compound 0.00949 µM, first compound 0.000949 µM): 102% | viability, T/C (second compound 0.00949 µM, first compound 0.003 µM): 94.8% | viability, T/C (second compound 0.00949 µM, first compound 0.00949 µM): 56.9% | viability, T/C (second compound 0.00949 µM, first compound 0.03 µM): 69.6% | viability, T/C (second compound 0.00949 µM, first compound 0.0949 µM): 65.8% | viability, T/C (second compound 0.00949 µM, first compound 0.3 µM): 81.9% | viability, T/C (second compound 0.03 µM, first compound 0.000949 µM): 87.2% | viability, T/C (second compound 0.03 µM, first compound 0.003 µM): 81% | viability, T/C (second compound 0.03 µM, first compound 0.00949 µM): 94.5% | viability, T/C (second compound 0.03 µM, first compound 0.03 µM): 81.4% | viability, T/C (second compound 0.03 µM, first compound 0.0949 µM): 63.5% | viability, T/C (second compound 0.03 µM, first compound 0.3 µM): 53.8% | viability, T/C (second compound 0.0949 µM, first compound 0.000949 µM): 87.5% | viability, T/C (second compound 0.0949 µM, first compound 0.003 µM): 94.5% | viability, T/C (second compound 0.0949 µM, first compound 0.00949 µM): 94.3% | viability, T/C (second compound 0.0949 µM, first compound 0.03 µM): 63.8% | viability, T/C (second compound 0.0949 µM, first compound 0.0949 µM): 63.4% | viability, T/C (second compound 0.0949 µM, first compound 0.3 µM): 63% | viability, T/C (second compound 0.3 µM, first compound 0.000949 µM): 75.5% | viability, T/C (second compound 0.3 µM, first compound 0.003 µM): 73.2% | viability, T/C (second compound 0.3 µM, first compound 0.00949 µM): 70.8% | viability, T/C (second compound 0.3 µM, first compound 0.03 µM): 88.2% | viability, T/C (second compound 0.3 µM, first compound 0.0949 µM): 45.1% | viability, T/C (second compound 0.3 µM, first compound 0.3 µM): 85.9% | viability, T/C (second compound 0.949 µM, first compound 0.000949 µM): 69.5% | viability, T/C (second compound 0.949 µM, first compound 0.003 µM): 71.9% | viability, T/C (second compound 0.949 µM, first compound 0.00949 µM): 58.3% | viability, T/C (second compound 0.949 µM, first compound 0.03 µM): 78.7% | viability, T/C (second compound 0.949 µM, first compound 0.0949 µM): 85.4% | viability, T/C (second compound 0.949 µM, first compound 0.3 µM): 79.2% | viability, T/C (second compound 3 µM, first compound 0.000949 µM): 69% | viability, T/C (second compound 3 µM, first compound 0.003 µM): 81.2% | viability, T/C (second compound 3 µM, first compound 0.00949 µM): 59% | viability, T/C (second compound 3 µM, first compound 0.03 µM): 65.5% | viability, T/C (second compound 3 µM, first compound 0.0949 µM): 91.2% | viability, T/C (second compound 3 µM, first compound 0.3 µM): 82.1%
